Measured values from BindingDB's records for patent US20240425453 (Neophore, 2024).

Target: T1, Mismatch repair endonuclease PMS2 (UniProt P54278)
T1 sequence (P54278 whole entry): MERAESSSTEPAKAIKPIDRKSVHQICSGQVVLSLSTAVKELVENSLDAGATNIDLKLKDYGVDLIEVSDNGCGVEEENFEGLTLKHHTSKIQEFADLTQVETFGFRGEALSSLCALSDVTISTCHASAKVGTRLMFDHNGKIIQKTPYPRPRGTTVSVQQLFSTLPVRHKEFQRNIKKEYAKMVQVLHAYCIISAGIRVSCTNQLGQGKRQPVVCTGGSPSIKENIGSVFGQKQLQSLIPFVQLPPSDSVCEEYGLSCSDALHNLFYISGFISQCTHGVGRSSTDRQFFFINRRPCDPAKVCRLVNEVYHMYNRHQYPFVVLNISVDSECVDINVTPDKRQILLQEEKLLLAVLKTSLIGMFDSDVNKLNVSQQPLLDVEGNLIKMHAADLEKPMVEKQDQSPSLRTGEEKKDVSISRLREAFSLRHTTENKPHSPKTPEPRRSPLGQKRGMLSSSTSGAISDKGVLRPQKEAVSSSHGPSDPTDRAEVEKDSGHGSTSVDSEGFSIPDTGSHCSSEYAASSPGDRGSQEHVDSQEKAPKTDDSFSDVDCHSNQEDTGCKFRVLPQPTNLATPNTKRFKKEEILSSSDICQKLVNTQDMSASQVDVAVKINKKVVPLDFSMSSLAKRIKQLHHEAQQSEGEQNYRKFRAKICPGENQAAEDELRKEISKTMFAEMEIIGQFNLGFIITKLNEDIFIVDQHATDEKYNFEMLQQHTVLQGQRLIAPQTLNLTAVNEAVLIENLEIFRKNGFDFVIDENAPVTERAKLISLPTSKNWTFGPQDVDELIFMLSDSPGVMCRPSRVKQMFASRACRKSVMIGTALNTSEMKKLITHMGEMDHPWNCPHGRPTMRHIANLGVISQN
Assay: Fluorescence Polarization Assay for PMS2

Question: How did the IC50 turn out when `C=C(CN(C)C)C(=O)Nc1cccc2c1CN(C(=O)c1c(O)cc(O)c(C)c1OC)C2` [US20240425453, Example 36] was run?
Answer: > 1 µM
